Reference: PMC7037393, “Synthesis, Structural, and Cytotoxic Properties of New Water-Soluble Copper(II) Complexes Based on 2,9-Dimethyl-1,10-Phenanthroline and Their One Derivative Containing 1,3,5-Triaza-7-Phosphaadamantane-7-Oxide” (Molecules, 2020)
Where two headings read alike, the source gives them in different places.

Legend:
[1] = test system: MCF7 (human breast adenocarcinoma); set-up: method as in PMID 31237306; conditions: cited from earlier work
[2] = test system: A549 (human lung carcinoma); set-up: method as in PMID 31237306; conditions: cited from earlier work
[3] = test system: LoVo (human colorectal adenocarcinoma); set-up: method as in earlier work; conditions: cited from earlier work
[4] = test system: HeLa (human cervix carcinoma); set-up: method as in PMID 31237306; conditions: cited from earlier work
NHDF cells [5] = test system: NHDF cells; set-up: method as in PMID 31237306; conditions: cited from earlier work
[6] = test system: MCF7 (human breast adenocarcinoma); test: Cytotoxicity on MCF7 cells, quantitative suspension test according to EN 14476; type: cell-based; conditions: observed 4 days, aqua media
Method: (§1) Normal human dermal fibroblasts (NHDF) (PromoCell, C-12302) were used as normal cells and LoVo (human colorectal adenocarcinoma, ATCC® CCL-229™), A549 (human lung carcinoma, ATCC, No. CCL-185 TM), MCF-7 (human breast adenocarcinoma, ATCC, No. HTB-22^TM) and HeLa (human cervix carcinoma, ATCC, No. CCL-2 TM) were used as cancer cells. They were cultured in DMEM, DMEM–F12 or EMEM (Lonza, CA, USA). Media were supplemented with 10% FBS (Biological Industries, Kibbutz Beit-Haemek, Israel), 2 mM L-glutamine (Biological Industries, Israel), 100 U/mL of penicillin and 100 µg/mL of streptomycin (Sigma, Neustadt an der Weinstrasse, Germany).
(§2) The 100 μL of suspension of NHDF, A549, HeLa, LoVo, and MCF7 cells at a density of 4 × 10^4 cells mL^−1 were incubated in a 96-well polystyrene plate (NUNC, Denmark) for 24 h. Product test solutions were prepared in DMEM, DMEM–F12, or EMEM supplemented with additional 2% FBS and 2 mM L-glutamine. Solutions of the reagents at concentrations from 460 (for 1), 454 (2), […] (3), 1242 (Cu(NO3)2), 1732 (PTA=O), and 1440 µM (dmphen) to 4.60 × 10^−6, 4.54 × 10^−6, 4.69 × 10^−6, 1.24 × 10^−5, 1.73 × 10^−5, and 1.44 × 10^−5 µM, respectively, were prepared and transferred (100 μL) into cell culture units (wells of microtiter plates) containing monolayer of cells. Eight units were inoculated with each dilution. Plates were incubated in 37 °C, 5% CO2 and observed daily for 4 days for the development of cytotoxic effect, using an inverted microscope (Olympus Corp., Hamburg, Germany, Axio Observer, Carl Zeiss MicroImaging GmbH). Then the wells were washed in phosphate buffered saline (PBS) and stained using DAPI (4′,6-diamidino-2-phenylindole) and propidium iodide (Merck, Darmstadt, Germany). The study used the fact that DAPI is able to be combined with cellular DNA, permeate through the membrane of cell, rapidly enter the nucleus of living cells and bind with DNA to form a DAPI-DNA complex. […] In cell culture these are cells that are apoptotic or damaged by any physical or chemical agent. Therefore, if these two fluorochrome are given at the same time, DAPI will get to healthy cells faster, while propidium iodide will stain dead or dying cells. The calculation of the ratio of cells counted on a specific area, allows to determine the potency of a substance in inhibiting a specific biological function (IC50).

[7] = test system: LoVo (human colorectal adenocarcinoma); test: Cytotoxicity on LoVo cells, quantitative suspension test according to EN 14476; type: cell-based; conditions: observed 4 days, aqua media
Method: as §1, §2

[8] = test system: HeLa (human cervix carcinoma); test: Cytotoxicity on HeLa cells, quantitative suspension test according to EN 14476; type: cell-based; conditions: observed 4 days, aqua media
Method: as §1, §2

NHDF cells [9] = test: Cytotoxicity on normal human dermal fibroblasts, quantitative suspension test according to EN 14476 (DAPI/propidium iodide); type: cell-based; conditions: observed 4 days, aqua media
Method: as §1, §2

[10] = test system: A549 (human lung carcinoma); test: Cytotoxicity on A549 cells, quantitative suspension test according to EN 14476; type: cell-based; conditions: observed 4 days, aqua media
Method: as §1, §2

apo-Tf = conditions: cited from earlier work
A549 cell line = conditions: read-out: IC50 value for A549 cell line; cited from earlier work
[11] = test system: normal cell lines like MRC5, HEK293T, or HaCat; conditions: cited from earlier work
A549 or HeLa lines = conditions: cited from earlier work
[12] = read-out: IC50 value, cytotoxic effect on A549 or HeLa lines, A549 or HeLa

## N.N.[Cl][Pt][Cl] [Cisplatin]
[1]
  IC50: 33.3 ± 4.2 µM
[2]
  IC50: 33.3 ± 4.2 µM
[3]
  IC50: 9.12 ± 0.005 µM
[4]
  IC50: 16.6 ± 3.1 µM
NHDF cells [5]
  IC50: 16.6 ± 2.1 µM

## O=[N+]([O-])[O-].O=[N+]([O-])[O-].[Cu+2] [Cu(NO3)2, reference compound]
[6]
  IC50: 155 ± 23 µM
[7]
  IC50: 38.8 ± 5.8 µM
[8]
  IC50: 19.1 ± 2.9 µM
NHDF cells [9]
  IC50: 310 ± 47 µM
[10]
  IC50: 155 ± 23 µM

## Cc1ccc2ccc3ccc(C)nc3c2n1 [Dmphen, 2,9-dimethyl-1,10-phenanthroline]
[7]; Homo sapiens, 96 h
  IC50: 360 ± 54 µM
[8]; Homo sapiens, 96 h
  IC50: 720 ± 108 µM

## CS(C)=O.[Cl-].[Cl-].[Cl-].[Cl-].[Ru+3].c1c[nH+]c[nH]1.c1c[nH]cn1 [NAMI-A, Imidazolium-trans-tetrachloro(dimethylsulfoxide)imidazoleruthenium(III)]
apo-Tf
  association constant with apo-Tf: 12800 M⁻¹

## COc1ccc(P(CO)c2ccc(OC)cc2)cc1.Cc1ccc2ccc3ccc(C)nc3c2n1.[Cu+].[I-] [[Cu(iodide)(dmphen)(P(p-OCH3-Ph)2CH2OH)]]
A549 cell line
  IC50: 62 µM
[11]
  concentration toxic for normal cell lines: 32 to 43 µM

## [Cr+3].c1cnc2c(c1)ccc1cccnc12.c1cnc2c(c1)ccc1cccnc12.c1cnc2c(c1)ccc1cccnc12 [chromium(III)-phen]
apo-Tf
  association constant, apo-Tf system: 150000 M⁻¹

## [Cu2(sal-D,L-glu)2(imidazole)2]
A549 or HeLa lines
  IC50: > 100 µM

## [Cu2(sal-D,L-glu)2(isoquinoline)2]∙2EtOH
A549 or HeLa lines; [12]
  IC50: > 100 µM

## [Cu(EtOH)2(imidazole)4]
A549 or HeLa lines
  IC50: > 100 µM

## [Cu(iodide)(dmphen)(P(p-OCH3-Ph)2CH2-SarGly)]
A549 cell line
  IC50: > 100 µM

## [Cu(sal-5-met-L-glu)(H2O)]∙H2O
A549 or HeLa lines; [12]
  IC50: > 100 µM
